Data: BindingDB's records for doi:10.1016/j.bmcl.2013.01.049 (Dongguk University-Seoul, 2013)

The compounds below were run against T1, Receptor-type tyrosine-protein kinase FLT3 (Homo sapiens, UniProt P36888) (assay: Inhibition of recombinant FLT3 (unknown origin) by TR-FRET assay).
T1 sequence (P36888 whole entry): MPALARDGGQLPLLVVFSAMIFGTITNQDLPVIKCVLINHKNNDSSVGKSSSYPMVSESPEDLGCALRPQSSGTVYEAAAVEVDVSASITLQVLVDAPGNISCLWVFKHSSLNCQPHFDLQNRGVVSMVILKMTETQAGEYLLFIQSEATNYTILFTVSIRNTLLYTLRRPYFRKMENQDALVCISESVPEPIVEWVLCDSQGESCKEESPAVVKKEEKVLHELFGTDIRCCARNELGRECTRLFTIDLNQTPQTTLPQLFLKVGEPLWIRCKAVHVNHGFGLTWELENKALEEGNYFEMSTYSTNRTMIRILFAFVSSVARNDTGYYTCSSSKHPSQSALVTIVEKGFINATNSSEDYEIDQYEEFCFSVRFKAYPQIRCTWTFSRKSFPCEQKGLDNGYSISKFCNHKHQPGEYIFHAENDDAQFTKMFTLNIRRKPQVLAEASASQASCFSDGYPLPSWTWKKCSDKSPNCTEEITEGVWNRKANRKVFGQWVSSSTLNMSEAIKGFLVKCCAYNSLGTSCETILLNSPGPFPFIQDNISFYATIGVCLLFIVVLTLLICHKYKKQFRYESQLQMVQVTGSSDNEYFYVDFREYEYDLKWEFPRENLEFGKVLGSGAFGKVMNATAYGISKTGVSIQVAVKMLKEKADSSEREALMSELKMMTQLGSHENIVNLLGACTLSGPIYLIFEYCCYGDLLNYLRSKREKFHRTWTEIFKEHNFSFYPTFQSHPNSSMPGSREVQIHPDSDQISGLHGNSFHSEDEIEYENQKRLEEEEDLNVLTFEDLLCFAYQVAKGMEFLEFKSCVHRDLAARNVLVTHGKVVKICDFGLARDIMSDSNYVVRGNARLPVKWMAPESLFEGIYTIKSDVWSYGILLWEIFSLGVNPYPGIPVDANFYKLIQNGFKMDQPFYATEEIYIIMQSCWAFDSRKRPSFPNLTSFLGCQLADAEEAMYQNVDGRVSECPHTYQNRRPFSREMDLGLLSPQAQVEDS

| IC50 [µM] | SMILES |
| --- | --- |
| > 10 | O=c1cc(O)cc2oc(-c3ccc(O)c(O)c3)c(O[C@@H]3O[C@H](CO)[C@@H](O)[C@H](O)[C@H]3O)c(O)c1-2 [Quercetin 3-O-beta-D-glucoside] |
| > 10 | O=c1cc(O)cc2oc(-c3ccc(O)c(O)c3)c(O[C@@H]3O[C@H](CO)[C@H](O)[C@H](O)[C@H]3O)c(O)c1-2 [2-(3,4-Dihydroxy-phenyl)-5,7-dihydroxy-3-((2S,4R,5R)-3,4,5-trihydroxy-6-hydroxymethyl-tetrahydro-pyran-2-yloxy)-chromen-4-one] |
| > 10 | O=c1cc(O)cc2oc(-c3ccc(O)c(O)c3)c(OC3O[C@H](CO)[C@@H](O)[C@H](O)[C@@H]3O)c(O)c1-2 (stereo partly drawn) |
